Broadly, the IC50 is the point on the concentration scale where inhibition reaches its midpoint.

The target of the test is T1, Recombinant human CBP containing the bromodomain (CBP-BD (1043-1159)) (Homo sapiens, UniProt Q92793).
T1 construct: Recombinant human CBP bromodomain (CBP-BD (1043-1159)); made in house; host or cells: E. coli BL21-CodonPlus (DE3), modified pET vector
In words: CBP Alphascreen binding assay. To be noted: read-out: CREBBP (CBP) IC50. In a few lines:
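Buffer: 50 mM HEPES pH 7.5, 50 mM NaCl, 0.01% BSA, 0.01% Triton X-100, 2 mM DTT. The signal was normalised to plate controls and fitted with a four-parameter curve to give IC50.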

T1 sequence (Q92793 1081-1197): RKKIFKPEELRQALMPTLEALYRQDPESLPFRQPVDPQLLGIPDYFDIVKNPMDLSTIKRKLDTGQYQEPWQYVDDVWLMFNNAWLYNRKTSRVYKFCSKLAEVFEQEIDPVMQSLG

On to `CCOc1cc(C(=O)O)cc(OCC)c1-n1cc(-c2cccc(Cl)c2)c2ncc(-c3c(C)noc3C)cc21` [P-0185, 4-(3-(3-chlorophenyl)-6-(3,5-dimethylisoxazol-4-yl)-1H-pyrrolo[3,2-b]pyridin-1-yl)-3,5-diethoxybenzoic acid], for which the IC50 is 0.1 to 1000 nM.
The figure for `CCOc1cc(C(=O)O)cc(OCC)c1-n1cc(-c2ccc(F)cc2F)c2ncc(-c3c(C)noc3C)cc21` [P-0186, 4-(3-(2,4-difluorophenyl)-6-(3,5-dimethylisoxazol-4-yl)-1H-pyrrolo[3,2-b]pyridin-1-yl)-3,5-diethoxybenzoic acid] is 0.1 to 1000 nM.
As to `CCOc1cc(C(=O)O)cc(OCC)c1-n1cc(Cc2ccccn2)c2ncc(-c3c(C)noc3C)cc21` [P-0187, 4-(6-(3,5-dimethylisoxazol-4-yl)-3-(pyridin-2-ylmethyl)-1H-pyrrolo[3,2-b]pyridin-1-yl)-3,5-diethoxybenzoic acid], the IC50 was in the range of 0.1 to 1000 nM.
Take `Cc1noc(C)c1-c1cnc2c(c1)c(-c1ccc(C(=O)O)cc1OC(F)(F)F)cn2-c1ccccc1` [P-0188, 4-(5-(3,5-dimethylisoxazol-4-yl)-1-phenyl-1H-pyrrolo[2,3-b]pyridin-3-yl)-3-(trifluoromethoxy)benzoic acid]: the 50% inhibitory concentration (IC50) is 0.1 to 1000 nM.
`Cc1ccncc1-n1cc(-c2ccc(C(=O)O)cc2OC(F)(F)F)c2cc(-c3c(C)noc3C)cnc21` [P-0189, 4-(5-(3,5-dimethylisoxazol-4-yl)-1-(4-methylpyridin-3-yl)-1H-pyrrolo[2,3-b]pyridin-3-yl)-3-(trifluoromethoxy)benzoic acid]: the IC50 is 0.1 to 1000 nM.
In the case of `CCOc1cc(C(=O)O)cc(OCC)c1-n1cc(CC2CCC2)c2ncc(-c3c(C)nnn3C)cc21` [P-0190, 4-(3-(cyclobutylmethyl)-6-(1,4-dimethyl-1H-1,2,3-triazol-5-yl)-1H-pyrrolo[3,2-b]pyridin-1-yl)-3,5-diethoxybenzoic acid] it was 0.1 to 1000 nM.
The figure for `Cc1noc(C)c1-c1cnc2c(c1)c(-c1ccc(C(=O)O)cc1OC(F)(F)F)cn2CCN1CCOCC1` [P-0191, 4-(5-(3,5-dimethylisoxazol-4-yl)-1-(2-morpholinoethyl)-1H-pyrrolo[2,3-b]pyridin-3-yl)-3-(trifluoromethoxy)benzoic acid] is 0.1 to 1000 nM; for `CCOc1cc(C(=O)O)cc(OCC)c1-n1cc(-c2ccc(C3CC3)nc2)c2ncc(-c3c(C)noc3C)cc21` [P-0192, 4-(3-(6-cyclopropylpyridin-3-yl)-6-(3,5-dimethylisoxazol-4-yl)-1H-pyrrolo[3,2-b]pyridin-1-yl)-3,5-diethoxybenzoic acid] it is 0.1 to 1000 nM; for `CCOc1cc(C(=O)O)cc(OCC)c1-n1cc(-c2cncc(Cl)c2)c2ncc(-c3c(C)noc3C)cc21` [P-0193, 4-(3-(5-chloropyridin-3-yl)-6-(3,5-dimethylisoxazol-4-yl)-1H-pyrrolo[3,2-b]pyridin-1-yl)-3,5-diethoxybenzoic acid] it is 0.1 to 1000 nM.
For `CCOc1cc(C(=O)O)cc(OCC)c1-n1cc(-c2ccc(OC)cc2F)c2ncc(-c3c(C)noc3C)cc21` [P-0194, 4-(6-(3,5-dimethylisoxazol-4-yl)-3-(2-fluoro-4-methoxyphenyl)-1H-pyrrolo[3,2-b]pyridin-1-yl)-3,5-diethoxybenzoic acid], the IC50 was 0.1 to 1000 nM.
Take `CCOc1cc(C(=O)O)cc(OCC)c1-n1cc(-c2cnn(C)c2)c2ncc(-c3c(C)noc3C)cc21` [P-0195, 4-(6-(3,5-dimethylisoxazol-4-yl)-3-(1-methyl-1H-pyrazol-4-yl)-1H-pyrrolo[3,2-b]pyridin-1-yl)-3,5-diethoxybenzoic acid]: the IC50 is 0.1 to 1000 nM.
For `Cc1noc(C)c1-c1cnc2c(-c3ccccc3)cn(-c3ccc(C(=O)O)cc3OC(F)(F)F)c2c1` [P-0196, 4-(6-(3,5-dimethylisoxazol-4-yl)-3-phenyl-1H-pyrrolo[3,2-b]pyridin-1-yl)-3-(trifluoromethoxy)benzoic acid], the IC50 was 0.1 to 1000 nM.
In the case of `Cc1noc(C)c1-c1cnc2c(c1)c(-c1c(Cl)cc(C(=O)O)cc1Cl)cn2[C@@H](C)c1ccccn1` [P-0197, (S)-3,5-dichloro-4-(5-(3,5-dimethylisoxazol-4-yl)-1-(1-(pyridin-2-yl)ethyl)-1H-pyrrolo[2,3-b]pyridin-3-yl)benzoic acid] it was 0.1 to 1000 nM; in that of `Cc1noc(C)c1-c1cnc2c(c1)c(-c1c(Cl)cc(C(=O)O)cc1OC(F)(F)F)cn2C(C1CC1)C1CC1` [P-0198, 3-chloro-4-(1-(dicyclopropylmethyl)-5-(3,5-dimethylisoxazol-4-yl)-1H-pyrrolo[2,3-b]pyridin-3-yl)-5-(trifluoromethoxy)benzoic acid], 0.1 to 1000 nM; in that of `Cc1noc(C)c1-c1cnc2c(c1)c(-c1ccc(C(=O)O)cc1OC(F)(F)F)cn2C(CC#N)C1CC1` (stereo not drawn) [P-0199, 4-(1-(2-cyano-1-cyclopropylethyl)-5-(3,5-dimethylisoxazol-4-yl)-1H-pyrrolo[2,3-b]pyridin-3-yl)-3-(trifluoromethoxy)benzoic acid], 0.1 to 1000 nM.
In the case of `Cc1noc(C)c1-c1cnc2c(c1)c(-c1ccc(C(=O)O)cc1OC(F)(F)F)cn2C(CC#N)C1CCCC1` (stereo not drawn) [P-0200, 4-(1-(2-cyano-1-cyclopentylethyl)-5-(3,5-dimethylisoxazol-4-yl)-1H-pyrrolo[2,3-b]pyridin-3-yl)-3-(trifluoromethoxy)benzoic acid] it was 0.1 to 1000 nM; in that of `CCOc1cc(C(=O)O)cc(OCC)c1-n1cc(-c2cnc(OC)nc2)c2ncc(-c3c(C)noc3C)cc21` [P-0201, 4-(6-(3,5-dimethylisoxazol-4-yl)-3-(2-methoxypyrimidin-5-yl)-1H-pyrrolo[3,2-b]pyridin-1-yl)-3,5-diethoxybenzoic acid], 0.1 to 1000 nM; in that of `Cc1noc(C)c1-c1cnc2c(c1)c(-c1ccc(C(=O)O)cc1OC(F)(F)F)cn2S(=O)(=O)C1CC1` [P-0202, 4-(1-(cyclopropylsulfonyl)-5-(3,5-dimethylisoxazol-4-yl)-1H-pyrrolo[2,3-b]pyridin-3-yl)-3-(trifluoromethoxy)benzoic acid], 0.1 to 1000 nM.
For the compound `Cc1noc(C)c1-c1cnc2c(c1)c(-c1ccc(C(=O)O)cc1OC(F)(F)F)cn2-c1ccnc(C(C)C)c1` [P-0203, 4-(5-(3,5-dimethylisoxazol-4-yl)-1-(2-isopropylpyridin-4-yl)-1H-pyrrolo[2,3-b]pyridin-3-yl)-3-(trifluoromethoxy)benzoic acid], the IC50 lay within 0.1 to 1000 nM.
For the compound `Cc1noc(C)c1-c1cnc2c(c1)c(-c1ccc(C(=O)O)cc1OC(F)(F)F)cn2-c1cnccc1C#N` [P-0204, 4-(1-(4-cyanopyridin-3-yl)-5-(3,5-dimethylisoxazol-4-yl)-1H-pyrrolo[2,3-b]pyridin-3-yl)-3-(trifluoromethoxy)benzoic acid], the IC50 was 0.1 to 1000 nM.
Turning to `CCOc1cc(C(=O)O)cc(F)c1-n1cc(-c2ccccc2)c2ncc(-c3c(C)noc3C)cc21` [P-0205, 4-(6-(3,5-dimethylisoxazol-4-yl)-3-phenyl-1H-pyrrolo[3,2-b]pyridin-1-yl)-3-ethoxy-5-fluorobenzoic acid], the IC50 was in the range of 0.1 to 1000 nM.
In the case of `CCOc1cccc(C#N)c1-n1cc(-c2ccccc2)c2ncc(-c3c(C)noc3C)cc21` [P-0206, 2-(6-(3,5-dimethylisoxazol-4-yl)-3-phenyl-1H-pyrrolo[3,2-b]pyridin-1-yl)-3-ethoxybenzonitrile] it was 0.1 to 1000 nM.
`Cc1noc(C)c1-c1cnc2c(-c3ccccc3)cn(-c3c(Cl)cccc3C#N)c2c1` [P-0207, 3-chloro-2-(6-(3,5-dimethylisoxazol-4-yl)-3-phenyl-1H-pyrrolo[3,2-b]pyridin-1-yl)benzonitrile]: the IC50 fell in the range of 1000 to 8000 nM.
The figure for `CCOc1cc(C(=O)O)cc(OCC)c1-n1cc(C2=CCC(F)(F)CC2)c2ncc(-c3c(C)noc3C)cc21` [P-0208, 4-(3-(4,4-difluorocyclohex-1-en-1-yl)-6-(3,5-dimethylisoxazol-4-yl)-1H-pyrrolo[3,2-b]pyridin-1-yl)-3,5-diethoxybenzoic acid] is 0.1 to 1000 nM.
With `CCOc1cc(C(=O)O)cc(OCC)c1-n1cc(-c2ccc(F)c(Cl)c2)c2ncc(-c3c(C)noc3C)cc21` [P-0209, 4-(3-(3-chloro-4-fluorophenyl)-6-(3,5-dimethylisoxazol-4-yl)-1H-pyrrolo[3,2-b]pyridin-1-yl)-3,5-diethoxybenzoic acid], the IC50 lay within 0.1 to 1000 nM.
The figure for `CCOc1cc(C(=O)O)cc(OCC)c1-n1cc(CC2CCC2)c2ncc(-c3c(COC)noc3C)cc21` [P-0210, 4-(3-(cyclobutylmethyl)-6-(3-(methoxymethyl)-5-methylisoxazol-4-yl)-1H-pyrrolo[3,2-b]pyridin-1-yl)-3,5-diethoxybenzoic acid] is 0.1 to 1000 nM; for `Cc1cnccc1-n1cc(-c2ccc(C(=O)O)cc2OC(F)(F)F)c2cc(-c3c(C)noc3C)cnc21` [P-0211, 4-(5-(3,5-dimethylisoxazol-4-yl)-1-(3-methylpyridin-4-yl)-1H-pyrrolo[2,3-b]pyridin-3-yl)-3-(trifluoromethoxy)benzoic acid] it is 0.1 to 1000 nM.
The figure for `Cc1noc(C)c1-c1cnc2c(c1)c(-c1ccc(C(=O)O)cc1OC(F)(F)F)cn2C1CCS(=O)(=O)CC1` [P-0212, 4-(5-(3,5-dimethylisoxazol-4-yl)-1-(1,1-dioxidotetrahydro-2H-thiopyran-4-yl)-1H-pyrrolo[2,3-b]pyridin-3-yl)-3-(trifluoromethoxy)benzoic acid] is 0.1 to 1000 nM; for `Cc1noc(C)c1-c1cnc2c(c1)c(-c1ccc(C(=O)O)cc1OC(C)C)cn2C(C1CC1)C1CC1` [P-0213, 4-(1-(dicyclopropylmethyl)-5-(3,5-dimethylisoxazol-4-yl)-1H-pyrrolo[2,3-b]pyridin-3-yl)-3-isopropoxybenzoic acid] it is 0.1 to 1000 nM; for `Cc1noc(C)c1-c1cnc2c(c1)c(-c1ccc(C(=O)O)cc1OCC(F)(F)F)cn2C(C1CC1)C1CC1` [P-0214, 4-(1-(dicyclopropylmethyl)-5-(3,5-dimethylisoxazol-4-yl)-1H-pyrrolo[2,3-b]pyridin-3-yl)-3-(2,2,2-trifluoroethoxy)benzoic acid] it is 0.1 to 1000 nM.

Values taken from patent US11446287B2, “Compounds and methods for EP300 or CBP modulation and indications therefor” (Opna Immuno-Oncology SA, priority 2019, dated 2022).
